According to patent US11071731B2, “Allosteric modulators of the mu opioid receptor” (Chiromics, LLC, priority 2017, dated 2021):

Tests used:
[1] = molecular target: T1, mu opioid receptor (MOR) (Homo sapiens, UniProt P35372); experiment: PathHunter β-arrestin recruitment assay, PAM mode with EC20 endomorphin-1; format: cell-based; conditions: for EC50: read-out: β-arr. EC50
In short: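 Enzyme fragment complementation read-out: β-gal ED fragment fused to receptor, EA fused to β-arrestin, recruitment restoring β-gal activity detected by chemiluminescence. EC50 and percent maximal response derived for each compound.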

[2] = molecular target: T1, mu opioid receptor (MOR); experiment: Hit Hunter cAMP signaling assay (adenylyl cyclase inhibition), PAM mode with EC20 endomorphin-1; format: cell-based
[3] = maximal response for β-arrestin recruitment
[4] = adenylyl cyclase inhibition, read-out: cAMP EC50
[5] = maximal response for adenylyl cyclase inhibition
[6] = cAMP EC50, adenylyl cyclase inhibition
[7] = maximal response, β-arrestin recruitment
[8] = maximal response, adenylyl cyclase inhibition

T1 sequence (P35372 whole entry, the tested form may be a part): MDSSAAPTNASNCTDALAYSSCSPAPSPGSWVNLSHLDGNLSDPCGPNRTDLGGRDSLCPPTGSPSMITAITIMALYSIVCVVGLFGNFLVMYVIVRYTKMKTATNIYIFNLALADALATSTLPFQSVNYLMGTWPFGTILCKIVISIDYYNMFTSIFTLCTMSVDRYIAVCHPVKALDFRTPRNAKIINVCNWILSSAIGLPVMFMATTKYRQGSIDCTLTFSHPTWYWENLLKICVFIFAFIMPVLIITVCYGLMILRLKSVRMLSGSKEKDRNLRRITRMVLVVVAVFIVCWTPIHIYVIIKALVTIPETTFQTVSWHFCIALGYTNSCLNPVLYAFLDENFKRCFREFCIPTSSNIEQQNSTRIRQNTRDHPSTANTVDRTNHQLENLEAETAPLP

Compound | β-arr Max. Resp. [1, 3] | EC50 ([1]; β-arrestin recruitment) [nM] | EC50 [2, 4] [nM] | cAMP Max. Resp. [2, 5] | EC50 [2, 6] [nM] | β-arr Max. Resp. [1, 7] | cAMP Max. Resp. [2, 8]
CCCC1CCCN(c2nc(Cl)ncc2F)C1c1cccc(C(F)(F)F)c1 (stereo not shown) [compound 247] | F (F represents a maximal response of > 60%) | > 2100 | > 2100 | E (E represents a maximal response of 40-60%) | – | – | –
Fc1cnc(Cl)nc1N1CCCCC1c1cccc(Cl)c1F (stereo not shown) [compound 369] | D (D represents a maximal response of < 40%) | < 700 | – | D (D represents a maximal response of < 40%) | < 700 | – | –
CC1CC(c2cccc(C(F)(F)F)n2)N(c2nc(Cl)ncc2F)C1 (single isomer, unassigned) [compound 221] | D (D represents a maximal response of < 40%) | > 2100 | > 2100 | D (D represents a maximal response of < 40%) | – | – | –
Fc1cc(C2COCCN2c2nc(Cl)ncc2F)cc(C(F)(F)F)c1 (single isomer, unassigned) [Compound 344] | D (D represents a maximal response of < 40%) | < 700 | < 700 | D (D represents a maximal response of < 40%) | – | – | –
O[C@H]1CC[C@H](c2cc(F)cc(C(F)(F)F)c2)N(c2nc(Cl)ncc2F)C1 (relative stereo) [compound 310] | F (F represents a maximal response of > 60%) | > 2100 | 700 to 2100 | F (F represents a maximal response of > 60%) | – | – | –
CS(=O)(=O)N1CCN(c2nc(Cl)ncc2F)C(c2cc(F)cc(C(F)(F)F)c2)C1 (racemic) [Compound 309] | E (E represents a maximal response of 40-60%) | > 2100 | > 2100 | D (D represents a maximal response of < 40%) | – | – | –
Fc1cnc(Cl)nc1N1CCCCC1c1cccc2ccncc12 (stereo not shown) [compound 286] | D (D represents a maximal response of < 40%) | > 2100 | – | D (D represents a maximal response of < 40%) | > 2100 | – | –
[2H]C1(c2ccc(F)c(Br)c2)C(F)CCCN1c1nc(Cl)ncc1F (stereo not shown) [compound 214] | F (F represents a maximal response of > 60%) | – | – | E (E represents a maximal response of 40-60%) | – | – | –
Fc1ccc(Cl)nc1N1CCCCC1c1cccc(C(F)(F)F)c1 (stereo not shown) [compound 263] | F (F represents a maximal response of > 60%) | 700 to 2100 | – | D (D represents a maximal response of < 40%) | 700 to 2100 | – | –
Fc1ccnc(C2CCCCN2c2nc(Cl)ncc2F)c1 (stereo not shown) [compound 412] | D (D represents a maximal response of < 40%) | < 700 | – | D (D represents a maximal response of < 40%) | < 700 | – | –
Fc1cnc(Cl)nc1N1CC(F)(F)CC1c1cccc(C(F)(F)F)c1 (stereo not shown) [compound 467] | – | > 2100 | > 2100 | – | – | F (F represents a maximal response of > 60%) | D (D represents a maximal response of < 40%)
Fc1cc(C2CCCCN2c2nc(Cl)ncc2F)cc(C(F)(F)F)c1 (single isomer, unassigned) [compound 423] | – | < 700 | – | – | < 700 | D (D represents a maximal response of < 40%) | D (D represents a maximal response of < 40%)
Fc1cnc(Cl)nc1N1CCCCC1c1cncc(Cl)n1 (stereo not shown) [compound 277] | E (E represents a maximal response of 40-60%) | > 2100 | – | D (D represents a maximal response of < 40%) | > 2100 | – | –
CCN(CC)c1ncc(F)c(N2CCCCC2c2cccc(C(F)(F)F)c2)n1 (stereo not shown) [compound 254] | D (D represents a maximal response of < 40%) | > 2100 | – | E (E represents a maximal response of 40-60%) | > 2100 | – | –
FC(F)(F)c1cccc(C2CCCCN2Cc2cccc(Cl)c2)c1 (stereo not shown) [compound 154] | F (F represents a maximal response of > 60%) | < 700 | – | E (E represents a maximal response of 40-60%) | < 700 | – | –
Fc1cnccc1C1CCCCN1c1nc(Cl)ncc1F (stereo not shown) [compound 375] | D (D represents a maximal response of < 40%) | < 700 | – | D (D represents a maximal response of < 40%) | < 700 | – | –
COc1ccc(C2CCCCN2c2cc(F)cc(Cl)n2)cc1Br (stereo not shown) [compound 215] | F (F represents a maximal response of > 60%) | 700 to 2100 | – | D (D represents a maximal response of < 40%) | > 2100 | – | –
Oc1ncc(F)c(N2CCCCC2c2cccc(C(F)(F)F)c2)n1 (stereo not shown) [compound 349] | D (D represents a maximal response of < 40%) | < 700 | – | D (D represents a maximal response of < 40%) | < 700 | – | –
Fc1cnc(Cl)nc1N1CCCCC1c1ccc(Cl)c(C(F)(F)F)c1 (stereo not shown) [compound 128] | F (F represents a maximal response of > 60%) | < 700 | – | E (E represents a maximal response of 40-60%) | 700 to 2100 | – | –
O=S(=O)(Cc1ccc(Cl)c(Cl)c1)N1C2CCC(C2)C1c1ccc(F)c(Br)c1 (stereo not shown) [Compound 181] | E (E represents a maximal response of 40-60%) | > 2100 | > 2100 | D (D represents a maximal response of < 40%) | – | – | –
O=S(=O)(c1ccc(Cl)cc1)N1CCCCC1c1ccc(Cl)c(C(F)(F)F)c1 (single isomer, unassigned) [compound 69] | F (F represents a maximal response of > 60%) | > 2100 | 700 to 2100 | D (D represents a maximal response of < 40%) | – | – | –
FC(F)(F)c1cccc(C2CCCCN2c2cccc(Cl)c2)n1 (stereo not shown) [compound 459] | – | > 2100 | > 2100 | – | – | F (F represents a maximal response of > 60%) | D (D represents a maximal response of < 40%)
Cc1c(C2CCCCN2c2nc(Cl)ncc2F)cccc1C(F)(F)F (stereo not shown) [compound 135] | F (F represents a maximal response of > 60%) | 700 to 2100 | – | D (D represents a maximal response of < 40%) | < 700 | – | –
COC(=O)c1ccc(N2CCCCC2c2cccc(C(F)(F)F)n2)cc1 (stereo not shown) [compound 478] | – | > 2100 | – | – | > 2100 | F (F represents a maximal response of > 60%) | D (D represents a maximal response of < 40%)
Fc1c(Cl)cccc1CN1CCCCC1c1cccc(C(F)(F)F)n1 (stereo not shown) [compound 172] | F (F represents a maximal response of > 60%) | 700 to 2100 | – | E (E represents a maximal response of 40-60%) | < 700 | – | –
O=S(=O)(c1ccc(Cl)cc1)N1CCCCC1c1ccc(OC(F)(F)F)c(Br)c1 (stereo not shown) [compound 43] | F (F represents a maximal response of > 60%) | 700 to 2100 | > 2100 | D (D represents a maximal response of < 40%) | – | – | –
COc1ncccc1C1CCCCN1c1nc(Cl)ncc1F (stereo not shown) [compound 380] | D (D represents a maximal response of < 40%) | < 700 | – | D (D represents a maximal response of < 40%) | < 700 | – | –
